Results on one compound are retold here after article PMC10166914, “GTN057, a komaroviquinone derivative, induced myeloma cells' death in vivo and inhibited c‐MET tyrosine kinase” (Cancer Medicine, 2023).

The subject of data set [1] is EGF stimulated ERK1/2, STAT3, AKT1 phosphorylation. As to the kind of experiment: Western blot, EGF-stimulated signaling in A549 cells. The class given is cell-based, human. To be noted: EGF stimulation. On the procedure: MM cells (4 × 10^5 cells/mL) were incubated with 0–20 μM GTN057 for 12 h. The cells were then co‐cultured with 0–50 ng/mL of hepatocyte growth factor (HGF) (PeproTech, London) or 0–20 ng/mL of fibroblast growth factor (FGF)‐2 (PeproTech) with 1 unit/mL of heparin in RPMI containing 4% dialyzed FCS (Gibco) for the KMS11 and KMS34 cells and 10% dialyzed FCS for the KMS21 cells for 15 min at RT (room temperature). A549 cells were co‐cultured with 0–50 ng/mL of epidermal growth factor (EGF) (PeproTech) in Eagle's MEM containing 4% dialyzed FCS for 15 min at RT. […]
The protein concentrations were measured using a BCA Protein Assay Kit (Thermo Fisher Scientific). […]
Antibodies against phospho‐STAT3 (Tyr705), phospho‐Akt (Ser473), p44/42 MAPK (Erk 1/2), phosphor‐p44/42 MAPK (Thr202/Tyr 204), and phospho‐c‐Met (Tyr1234/1235) (all from Cell Signaling Technology, Danvers, MA) or STAT3, Akt, c‐Met, and β‐actin (all from Santa Cruz Biotechnology, Santa Cruz, CA) or phospho‐c‐Met (Tyr1230/1234/1235) (Biosource, Camarillo, CA for KMS34 cells in Figure 3A) were each used at 1:1000 dilution. […] The Western blotting signals were detected by enhanced ECL chemiluminescence (Amersham). The signal intensity of each band was quantified densitometrically with ImageJ software (ver. 1.48, U.S. National Institutes of Health).
In general terms: In western blotting, separated proteins are transferred to a membrane and probed.

Data set [2] relates to CD138-positive cells obtained from MM patients' bone marrow. As to the kind of experiment: Growth inhibition of patient cells, MTT assay. The class given is cell-based. To be noted: Homo sapiens, 48 h. The text has this: Mononuclear cells were obtained from the bone marrow aspirates of MM patients treated at Tokyo Saiseikai Central Hospital, by centrifugation with Lymphoprep™ (Axis‐Shield). The mononuclear cells were then labeled with CD138 MicroBeads from Miltenyi Biotec (Bergisch Gladbach). The labeled CD138‐positive cells were magnetically purified using MACS Columns (Miltenyi Biotec).
For the 3‐[…] (MTT) assay (Roche Diagnostics), 6 × 10^4 cells/mL of CD138‐positive bone marrow cells were cultured in 96‐well plates in triplicate with various concentrations of GTN057 for 48 h. The cell viability was examined by MTT dye absorbance in accord with the manufacturer's manual. We obtained the IC50 values by drawing approximate straight lines in semilogarithmic growth curves, using Microsoft Excel.

Data set [3] has as its system bone marrow cells from mice. The arrangement: method as in PMID 28882484. Conditions: cited from earlier work.
Data set [4] can be described thus: Pharmacokinetic study, LC-MS/MS of plasma. The class given is in vivo, ICR mice. On the procedure:
For the pharmacokinetic study, 0 or 100 mg/kg of GTN057 (1% Tween® 80 + 10% DMSO in saline) was injected (i.p.) into male 5‐week‐old ICR mice. Peripheral blood samples were taken using heparinized hematocrit tubes from the tail vein of each mouse at 0, 15, and 30 min and 1, 2, 4, and 24 h. The blood samples were applied to centrifugation (1100 × g, 15 min at 4°C) and we then collected the supernatant plasma. […] (Wako) and MeOH (Kanto, Tokyo) for LC–MS/MS (liquid chromatography–tandem mass spectrometry) measurements were mixed in a 1:1 ratio, and verapamil hydrochloride (an internal standard substance) was dissolved to the final concentration of 120 ng/mL to prepare a deproteinizing agent. We diluted the blood samples four times with this deproteinizing agent. After 15 min on ice, each deproteinized plasma sample was centrifuged (9100 × g, 10 min, 4°C). The supernatants were collected and used for the LC–MS/MS analyses.
All compounds including GTN057 were analyzed with a mass spectrometer (AB SCIEX) coupled to an HPLC (high‐performance liquid chromatography) system (Shimadzu). The peptides were separated with the use of an Atlantis® dC18, 3‐μm, 100 Å column (Waters). The solvent composition was 15% for solution A (100 mM CH3COONH4) and 85% for solution B (CH3OH). The HPLC measurement settings were as follows. Constant flow rate: 0.2 mL/min, column temperature: 40°C. The MS settings were: spray voltage, 5500 V; turbo heater temperature, 300°C.

In the next data set the test system is KMS11 cells. Description: In vivo tumor growth assay, KMS11 xenograft. To be noted: 100 mg/kg i.p., after 2 weeks of treatment, KMS11-xenografted SCID mice. Set-up: species or system ICR/SCID mice. The protocol:
For the in vivo tumor growth assay, we injected 3 × 10^7 cells of KMS11 cells subcutaneously into the flank of male 5‐week‐old ICR/SCID mice. When the tumors reached 100 mm^3, we injected (i.p.) 20 or 100 mg/kg of GTN057 solubilized in 1% Tween® 80 + 10% DMSO in saline twice every 3 days for 2 weeks. We measured the tumor volumes every day for 2 weeks as the length × width^2 × 0.52.[21]

Setting [5] is: male, mouse, ip, single i.p. injection 100 mg/kg, ICR mice, plasma.

Where “and” joins values, the source holds several entries; their conditions need not be identical. Equal entries are not always repeated.

The IC50 is the concentration that gives 50% inhibition. Low readings indicate higher potency, high ones lower potency. One may read the Cmax as the peak of the concentration-time curve. A word on the Tmax: it is the time from dosing to the highest level. `COc1c(OC(C)=O)c2c(c(O)c1C(C)C)C(=O)CC1C(C)(C)CCC[C@]1(O)C2` (some centres unmarked) [GTN057]: the “ERK1/2, STAT3, AKT1 phosphorylation levels” value in data set [1] was “not altered”. The concentration for half-maximal inhibition (IC50) was determined as 12.1 µM in data set [2] (Patient 1 CD138+ cells), 16.3 µM in data set [2] (Patient 2 CD138+ cells), 26.3 µM in data set [2] (Patient 3 CD138+ cells) and 18.7 µM in data set [2] (Patient 4 CD138+ cells). Further, the “Colony formation of bone marrow cells” value in data set [3] (bone marrow cells from mice) was “did not inhibit the colony formation”. For the same compound, in data set [3] (colony assay), the “Hematological toxicity in vitro” value is “negligible hematological toxicity”. In data set [4] (setting [5]), the Cmax was 790 ng/mL and 1.95 µM. In data set [4] (setting [5]), the Tmax was 30 min. Besides, the Degradation in plasma result in data set [4] (plasma, LC-MS/MS, preliminary data) was “immediately dehydrated (m/z 387) or deacetylated (m/z 363) in plasma”. Further, the plasma disappearance half-time in data set [4] (single i.p. injection 100 mg/kg, ICR mice) was found to be 110 min. Also, the “Presence in blood at 24 h post-injection” value in data set [4] (single i.p. injection 100 mg/kg, ICR mice, 24 h) was “almost completely disappeared”. The compound also came in with an Average tumor volume in the data set with KMS11 cells of 0.71 ± 0.17 cm^3. In the data set with KMS11 cells, the Average tumor weight came out at 0.98 ± 0.16 g.
